Assay results reported in US20240299416A1, “TREATMENT OF NF-kB-MEDIATED DISEASE” (ReveraGen BioPharma, Inc., priority 2021, published 2024).
Where two headings read alike, the source gives them in different places.

Key:
[1] = Griggs et al. 2016 double-blind trial, 12 months treatment, cited from earlier work
[2] = cited from earlier work
[3] = target: T1, mineralocorticoid receptor (Homo sapiens, UniProt P08235); conditions: cited from earlier work
T1 sequence (P08235 1-984): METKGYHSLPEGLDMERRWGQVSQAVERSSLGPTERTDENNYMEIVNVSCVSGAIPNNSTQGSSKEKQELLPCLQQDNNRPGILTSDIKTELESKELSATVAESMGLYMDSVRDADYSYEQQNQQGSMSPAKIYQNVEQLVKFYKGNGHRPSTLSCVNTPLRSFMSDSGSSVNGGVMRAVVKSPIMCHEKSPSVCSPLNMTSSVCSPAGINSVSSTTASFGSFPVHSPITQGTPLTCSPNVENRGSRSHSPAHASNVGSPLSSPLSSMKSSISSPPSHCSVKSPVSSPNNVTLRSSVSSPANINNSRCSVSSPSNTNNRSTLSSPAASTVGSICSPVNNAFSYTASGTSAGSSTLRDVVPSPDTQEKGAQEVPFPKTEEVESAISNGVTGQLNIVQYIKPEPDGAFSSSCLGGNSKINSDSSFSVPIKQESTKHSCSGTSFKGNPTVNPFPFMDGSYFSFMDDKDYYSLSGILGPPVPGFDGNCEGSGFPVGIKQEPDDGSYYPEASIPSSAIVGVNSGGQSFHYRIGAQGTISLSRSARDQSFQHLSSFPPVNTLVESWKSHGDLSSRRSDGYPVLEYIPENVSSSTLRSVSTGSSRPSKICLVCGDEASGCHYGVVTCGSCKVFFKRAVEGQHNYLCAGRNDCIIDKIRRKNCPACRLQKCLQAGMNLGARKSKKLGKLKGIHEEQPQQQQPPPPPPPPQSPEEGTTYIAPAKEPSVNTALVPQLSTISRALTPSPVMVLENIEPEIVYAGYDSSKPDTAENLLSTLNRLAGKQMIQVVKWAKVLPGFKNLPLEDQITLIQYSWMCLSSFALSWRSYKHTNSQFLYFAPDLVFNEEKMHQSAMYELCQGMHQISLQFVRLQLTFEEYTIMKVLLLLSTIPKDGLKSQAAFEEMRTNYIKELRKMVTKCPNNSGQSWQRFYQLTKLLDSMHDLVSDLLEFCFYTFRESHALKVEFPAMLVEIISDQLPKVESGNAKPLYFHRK

[4] = VBP15-004 height and BMI z-scores, 24 to 48 weeks; format: in vivo, human; conditions: for BMI mean z-score: prednisone
Description: (§1) The second period of 24 weeks, where all participants receive vamorolone treatment on either of the two dose levels, will continue to capture additional longer-term safety and tolerability data.
(§2) Subjects already on vamorolone continued on the allocated dose level. Efficacy at Week 48 was assessed by Time to Stand (TTSTAND) velocity, 6-Minute Walk Test (6MWT), Time to Run/Walk 10 meters (TTRW) velocity, and North Star Ambulatory Assessment (NSAA). […] In contrast, the persistence of effects with vamorolone 2 mg/kg/day was less pronounced for some parameters. The safety profile was consistent for subjects who continued on the same dose of vamorolone throughout the study, with no increase in frequency or severity of adverse events being observed over time. […] In addition, vamorolone treatment at both doses reversed the growth impairment seen during prednisone treatment and was associated with fewer adverse events, including those associated with corticosteroid use.

[5] = VBP15-004 adverse events, Treatment Period 2 / cross-over; format: in vivo, human; conditions: on prednisone (to Week 24), subjects later switched to vamorolone 6 mg/kg/day
Description: as §2, with “([…])” for “(TTSTAND)”

[6] = Growth (height percentile) and BMI vs external comparators; format: in vivo, human; conditions: CINRG prednisone trial, 0.75 mg/kg/day daily; for Mean BMI z-score, change from baseline (SD) / Mean BMI z-score, baseline value (SD): 0.75 mg/kg/day
Description: As with the CINRG DNHS comparators, group-matching criteria were prespecified in the iSAP, and 2 independent statisticians carried out the participant matching. […] There was no corresponding 12-month assessment in vamorolone-treated participants. (Assessments of vamorolone-treated trial participants were 0, 3, 6, and 18 months).
Standing height and weight were assessed at each study visit. Height z-score, body mass index (BMI; kg/m^2), and BMI z-score were calculated centrally. AE reporting was done per protocol in the vamorolone trials.
The current study is the first to evaluate the longer-term tolerability, efficacy, and safety of vamorolone in DMD. […] Given the variable timing of dose escalations, it was prespecified that initial analyses of drug-related efficacy and safety would be limited to those participants who had 18 months of treatment with 2.0 mg/kg/day vamorolone or more (dose group C+dose group D; n=23). Outcomes for these participants were compared to a group-matched cohort from the CINRG DNHS over 18 months (corticosteroid-naïve, n=19; corticosteroid-treated, n=68). Participants were matched for age and treatment period (±1 month), matching criteria were prespecified in the statistical analysis plan. Two independent statisticians carried out the matching.
Participants in the corticosteroid-treated CINRG DNHS group were treated for at least 18 months, but the total duration, dose, and regimens varied.

osteocalcin, P1NP, CTX = assay: VBP15-004 bone turnover biomarkers; format: in vivo, human
[7] = VBP15-004 adverse events at 24 weeks; set-up: species or system human; conditions: male, human, in vivo, 24 weeks
Excerpt: In certain embodiments, the symptom may be an adverse event of special interest (AESI). In this context, AESIs are prespecified based on pre-defined MedDRA search criteria for eleven AESI categories for the corticosteroid class and then further stratified into AESI of at least moderate severity. The symptoms for treating DMD with corticosteroids include, but is not limited to, behavior adverse events, blood glucose related problems, gastrointestinal symptoms, increased arterial blood pressure, immune suppression/infections, skin/hair changes, cataracts/glaucoma, cushingoid features, weight gain, bone fractures, slow growth.
as §1

boys with DMD = assay: VBP15-004 efficacy at Week 48; format: in vivo, human; conditions: prednisone, Treatment Period 1
Description: as §2, with “([…])” for “(TTSTAND)”

[8] = Griggs et al. 2016, 0.9 mg/kg/day deflazacort, 0.75 mg/kg/day prednisone

CC(=O)OCC(=O)[C@@]12N=C(C)O[C@@H]1C[C@H]1[C@@H]3CCC4=CC(=O)C=C[C@]4(C)[C@H]3[C@@H](O)C[C@@]12C [Deflazacort, deflazacort]
change in height percentiles for age [1]: −11.4
change in height percentiles for age ([1]; listed as deflazacort): −11.43
Incidence of Cushingoid ([2]; CINRG DNHS): 72%
Incidence of behavior change ([2]; CINRG DNHS): 33%
Incidence of weight gain ([2]; CINRG DNHS): 63%
Incidence of Cushingoid [2, 8]: 60.3%
Incidence of behavior change [2, 8]: 9%
Incidence of hypertrichosis/hirsutism [2, 8]: 35%
Incidence of weight gain [2, 8]: 27.9%
activity at the mineralocorticoid receptor [3]: agonists

C[C@]12C=CC(=O)C=C1CC[C@@H]1[C@@H]2C(=O)C[C@@]2(C)[C@H]1CC[C@]2(O)C(=O)CO [Prednisone, prednisone]
height (z-score), absolute value, Mean ([4]; PDN/VAM 6 mg, Week 24): −0.38
change in height Z scores ([4]; prednisone 0.75 mg/kg/day, baseline to Week 24): growth deceleration
BMI mean z-score ([4]; end of Treatment Period 1): 1.40
BMI mean z-score ([4]; start of Treatment Period 1): 0.94
number of adverse events [5]: 70
number of adverse events reported as behavioral disorders [5]: 15
number of adverse events typically associated with corticosteroids [5]: 40
Mean BMI z-score, value (SD) at 12 months ([6]; 12 months): 1.068 (1.05)
Mean height percentile for age, change from baseline (SD) ([6]; 12 months): −3.76 (10.44)
Mean height percentile for age, value (SD) at 12 months ([6]; 12 months): 26.14 (24.21)
Mean BMI z-score, change from baseline (SD) ([6]; 12 months): 0.459 (0.407)
Mean BMI z-score, change from baseline (SD) ([6]; 12 months, listed as prednisone): 0.46
Mean height percentile for age, baseline value (SD) ([6]; baseline): 29.89 (29.15)
Mean BMI z-score, baseline value (SD) ([6]; baseline): 0.61 (1.27)
Mean BMI z-score, baseline value (SD) ([6]; baseline, listed as prednisone): 0.61
activity at the mineralocorticoid receptor [3]: agonists
Osteocalcin, mean (SEM) change at Week 24 (osteocalcin, P1NP, CTX): −15.2 (2.7) ng/ml
Procollagen 1 N-Terminal Propeptide (P1NP), mean (SEM) change at Week 24 (osteocalcin, P1NP, CTX; Prednisone 0.75 mg): −134 (22) ng/mL
Type I Collagen C-Telopeptides (CTX), mean (SEM) change at Week 24 (osteocalcin, P1NP, CTX; Prednisone 0.75 mg): −300 (43) pg/mL
effect on bone biomarkers (osteocalcin, PINP, CTX) (osteocalcin, P1NP, CTX; Week 24, vamorolone 2.0 and 6.0 mg/kg): strongly reduce all bone biomarkers
AESIs of at least moderate severity, F [7]: 15
Abnormal behavior, any severity, F [7]: 2
Abnormal behavior, moderate/severe, F [7]: 1
Aggression, any severity, F [7]: 3
Aggression, moderate/severe, F [7]: 2
All AESIs, F [7]: 69
All TEAEs, F [7]: 120
Anger, any severity, F [7]: 1
Any Behavior AESI, any severity, F [7]: 16
Any Behavior AESI, moderate/severe, F [7]: 8
Clinically relevant AEs, F [7]: 19
Emotional disorder, any severity, F [7]: 1
Emotional disorder, moderate/severe, F [7]: 1
Initial insomnia, any severity, F [7]: 1
Irritability, any severity, F [7]: 1
Mood swings, any severity, F [7]: 2
Mood swings, moderate/severe, F [7]: 1
Personality change, any severity, F [7]: 1
Personality change, moderate/severe, F [7]: 1
Psychomotor hyperactivity, any severity, F [7]: 3
Psychomotor hyperactivity, moderate/severe, F [7]: 1
Severe TEAEs (CTCAE Grade ≥3), F [7]: 1
Sleep disorder, any severity, F [7]: 1
Sleep disorder, moderate/severe, F [7]: 1
TEAEs leading to discontinuation, F [7]: 1
clinically relevant psychiatric events, subjects [7]: 19.4%
moderate/severe behavior problems, subjects [7]: 22.6%
6MWT distance (boys with DMD): 407 meters
NSAA (boys with DMD): 25.6 points
TTRW velocity (boys with DMD): 2.20 m/s
TTSTAND velocity (boys with DMD): 0.28 rises/s
